This is an account of results in patent US6448256B1, “Antibiotic prodrugs” (University of Massachusetts, priority 1999, dated 2002).

In general, MIC refers to the least concentration at which growth counts as inhibited. Usually Ki stands for a measure of affinity in units of concentration, obtained from inhibition or displacement.

The subject of test [1] is vancomycin-resistant E. fecium. The experiment in a line: MIC against vancomycin-resistant E. fecium (VRE, VREF*). Particulars: Enterococcus; Table 5, vancomycin-resistant E. fecium. In kind it is cell-based. As to the method: (§1) To further investigate the antibacterial and/or DNA pol III inhibitory activity of various drug compounds, various ester-containing moieties N-linked to the EMAU core were produced as described in Example 1. These prodrugs were assayed for inhibition of B. subtilis DNA pol III and antibiotic activity against a number of bacteria.
(§2) The minimal inhibitory concentrations (MICs) of the four N3-substituted agents and EMAU were determined for B. subtilis (BS), methicillin-sensitive and resistant S. aureus (SA & MRSA), vancomycin-sensitive and resistant E. fecalis (EF& VREF), vancomycin-resistant E. fecium (VREF*), and E. coli (EC) as a Gram-negative control.

In test [2] the target is EF pol III (Enterococcus faecalis, UniProt Q831W8). As to the kind of experiment: Inhibition of E. fecalis pol III (Ki). It is filed as biochemical. Particulars: Table 4, average of 3 determinations, standard deviation 13.4%; read-out: KI EF pol III. As to the method: (§3) The competitive inhibitor constants (Ki) of selected EMAU compounds were determined with three different pol Ills: the pol III enzyme from Bacillus subtilis (BS pol III), and the pol III enzymes of the clinically relevant pathogens, Enterococcus fecalis (EF pol III) and Staphylococcus aureus (SA pol 111).

Test [3] relates to vancomycin-resistant E. fecalis. As to the kind of experiment: MIC against vancomycin-resistant E. fecalis (VREF). It is filed as cell-based. Particulars: Table 5, vancomycin-resistant E. fecalis. How it is done: as §2
The subject of test [4] is E. fecalis. As to the kind of experiment: MIC against E. fecalis. It is filed as cell-based. Particulars: Table 5, vancomycin-sensitive; read-out: MIC EF. As to the method: as §1, §2
The subject of test [5] is MRSA2. As to the kind of experiment: MIC against methicillin-resistant S. aureus strain MRSA2. Particulars: Staphylococcus aureus; Table 5. It is filed as cell-based. As to the method: as §1, §2
The target in test [6] is T1, SA pol III (Staphylococcus aureus, UniProt P0C1P9).
T1 sequence (P0C1P9 1-1435): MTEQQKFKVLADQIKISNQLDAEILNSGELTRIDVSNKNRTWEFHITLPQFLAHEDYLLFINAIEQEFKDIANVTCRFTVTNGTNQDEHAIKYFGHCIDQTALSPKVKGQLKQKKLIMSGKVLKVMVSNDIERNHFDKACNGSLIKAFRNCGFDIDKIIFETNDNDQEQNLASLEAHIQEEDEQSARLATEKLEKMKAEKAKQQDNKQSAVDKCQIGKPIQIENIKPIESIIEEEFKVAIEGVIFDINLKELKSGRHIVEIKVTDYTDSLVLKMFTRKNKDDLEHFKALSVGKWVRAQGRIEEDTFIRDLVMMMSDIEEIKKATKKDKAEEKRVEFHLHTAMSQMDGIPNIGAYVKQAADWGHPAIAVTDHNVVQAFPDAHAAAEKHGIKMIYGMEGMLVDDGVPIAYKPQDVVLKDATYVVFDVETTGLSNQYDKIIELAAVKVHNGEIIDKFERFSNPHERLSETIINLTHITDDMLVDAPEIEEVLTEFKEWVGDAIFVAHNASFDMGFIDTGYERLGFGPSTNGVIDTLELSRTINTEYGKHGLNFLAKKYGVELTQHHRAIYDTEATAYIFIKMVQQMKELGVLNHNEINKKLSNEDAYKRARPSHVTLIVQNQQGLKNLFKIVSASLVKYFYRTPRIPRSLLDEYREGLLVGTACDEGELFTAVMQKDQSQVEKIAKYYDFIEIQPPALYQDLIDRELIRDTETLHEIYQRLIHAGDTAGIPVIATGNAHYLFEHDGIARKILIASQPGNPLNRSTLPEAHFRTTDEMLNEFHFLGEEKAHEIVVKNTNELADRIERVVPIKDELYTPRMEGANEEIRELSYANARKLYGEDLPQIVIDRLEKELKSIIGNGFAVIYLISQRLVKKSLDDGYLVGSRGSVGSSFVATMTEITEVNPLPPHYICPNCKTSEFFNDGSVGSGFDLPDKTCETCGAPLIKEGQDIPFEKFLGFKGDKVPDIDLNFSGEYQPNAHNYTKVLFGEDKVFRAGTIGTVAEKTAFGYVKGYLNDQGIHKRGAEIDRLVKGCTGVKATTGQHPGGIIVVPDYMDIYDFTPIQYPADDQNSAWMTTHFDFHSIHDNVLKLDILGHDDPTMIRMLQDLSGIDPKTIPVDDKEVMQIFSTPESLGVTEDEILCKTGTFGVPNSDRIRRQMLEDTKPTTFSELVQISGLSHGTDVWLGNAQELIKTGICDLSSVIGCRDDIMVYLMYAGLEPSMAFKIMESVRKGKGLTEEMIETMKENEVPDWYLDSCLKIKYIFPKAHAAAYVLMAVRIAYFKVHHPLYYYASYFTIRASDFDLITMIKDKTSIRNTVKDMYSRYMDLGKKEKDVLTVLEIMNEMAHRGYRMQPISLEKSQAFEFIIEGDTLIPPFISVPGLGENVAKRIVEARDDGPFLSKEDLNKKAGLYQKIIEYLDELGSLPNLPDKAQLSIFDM
The experiment in a line: Inhibition of S. aureus pol III (Ki). In kind it is biochemical. Particulars: Table 4, average of 3 determinations, standard deviation 13.4%. As to the method:
as §3

The subject of test [7] is MRSA. As to the kind of experiment: MIC against methicillin-resistant S. aureus strain MRSA / MRSA1. In kind it is cell-based. Particulars: Staphylococcus aureus, MRSA; Table 5. How it is done: as §1, §2
In test [8] the test system is B. subtilis. As to the kind of experiment: MIC against B. subtilis. Particulars: Bacillus subtilis, Table 5; read-out: MIC BS. It is filed as cell-based. As to the method:
as §1, §2

The test system of test [9] is S. aureus. The experiment in a line: MIC against S. aureus (methicillin-sensitive). It is filed as cell-based. Particulars: Staphylococcus aureus, Table 5, methicillin-sensitive; read-out: MIC SA. How it is done:
as §1, §2

The subject of test [10] is E. coli. The experiment in a line: MIC against E. coli (Gram-negative control). In kind it is cell-based. Particulars: Escherichia coli; Table 5, Gram-negative control. As to the method:
as §1, §2

In test [11] the target is B. subtilis DNA pol III (Bacillus subtilis, UniProt P13267). The experiment in a line: Inhibition of B. subtilis DNA pol III (Ki). It is filed as biochemical. Particulars: Table 4, average of 3 determinations, standard deviation 13.4%; read-out: KI Bs pol III. As to the method: as §1, §3
Test [12] deals with S. aureus (methicillin-sensitive Smith strain). As to the kind of experiment: ip/ip mouse protection against lethal S. aureus infection. In kind it is in vivo, mice. As to the method:
Step 1: Screening—Each candidate prodrug is screened for activity in an ip/ip S. aureus protection model. Candidates that display efficacy equivalent to that of HB-EMAU and HB-IMAU are selected for advanced pharmacokinetic analysis and application in the more relevant mouse thigh model of infection.
The efficacy of the propyl derivatives was tested against murine staphylococcal infection in vivo. A simple “ip/ip” system was used, in which 20 gram mice (10 each) were injected ip (intraperitoneally) with a lethal dose (2.3×10^7 CFU) of the methicillin-sensitive Smith strain of S. aureus. The mice were then immediately injected ip with the antibiotic agent as a 1:9 mixture of DMSO:peanut oil. Vancomycin was used as the positive control drug.
Both hydroxybutyl compounds were tested at 10 mg/kg in the mouse protection experiment against lethal S. aureus infection described in Example 4 above.

Test [13] relates to B. subtilis. As to the kind of experiment: Antibacterial activity of crude compounds made by small scale synthesis. In kind it is cell-based. Particulars: Bacillus subtilis; crude reaction mixtures dissolved in DMSO, assayed directly. How it is done: 6-Anilinouracils were synthesized using small scale synthetic methods. One milligram quantities of 3-(3-methoxypropyl)-6-chlorouracil were heated with 42 substituted anilines in micro-test tubes at 130° C. for 20 minutes. The reaction mixtures were dissolved in DMSO and assayed directly for antibacterial activity.

Values after ≈ are worked out from the molar mass of the structure shown.

B. subtilis DNA pol III, sequence (P13267 whole entry): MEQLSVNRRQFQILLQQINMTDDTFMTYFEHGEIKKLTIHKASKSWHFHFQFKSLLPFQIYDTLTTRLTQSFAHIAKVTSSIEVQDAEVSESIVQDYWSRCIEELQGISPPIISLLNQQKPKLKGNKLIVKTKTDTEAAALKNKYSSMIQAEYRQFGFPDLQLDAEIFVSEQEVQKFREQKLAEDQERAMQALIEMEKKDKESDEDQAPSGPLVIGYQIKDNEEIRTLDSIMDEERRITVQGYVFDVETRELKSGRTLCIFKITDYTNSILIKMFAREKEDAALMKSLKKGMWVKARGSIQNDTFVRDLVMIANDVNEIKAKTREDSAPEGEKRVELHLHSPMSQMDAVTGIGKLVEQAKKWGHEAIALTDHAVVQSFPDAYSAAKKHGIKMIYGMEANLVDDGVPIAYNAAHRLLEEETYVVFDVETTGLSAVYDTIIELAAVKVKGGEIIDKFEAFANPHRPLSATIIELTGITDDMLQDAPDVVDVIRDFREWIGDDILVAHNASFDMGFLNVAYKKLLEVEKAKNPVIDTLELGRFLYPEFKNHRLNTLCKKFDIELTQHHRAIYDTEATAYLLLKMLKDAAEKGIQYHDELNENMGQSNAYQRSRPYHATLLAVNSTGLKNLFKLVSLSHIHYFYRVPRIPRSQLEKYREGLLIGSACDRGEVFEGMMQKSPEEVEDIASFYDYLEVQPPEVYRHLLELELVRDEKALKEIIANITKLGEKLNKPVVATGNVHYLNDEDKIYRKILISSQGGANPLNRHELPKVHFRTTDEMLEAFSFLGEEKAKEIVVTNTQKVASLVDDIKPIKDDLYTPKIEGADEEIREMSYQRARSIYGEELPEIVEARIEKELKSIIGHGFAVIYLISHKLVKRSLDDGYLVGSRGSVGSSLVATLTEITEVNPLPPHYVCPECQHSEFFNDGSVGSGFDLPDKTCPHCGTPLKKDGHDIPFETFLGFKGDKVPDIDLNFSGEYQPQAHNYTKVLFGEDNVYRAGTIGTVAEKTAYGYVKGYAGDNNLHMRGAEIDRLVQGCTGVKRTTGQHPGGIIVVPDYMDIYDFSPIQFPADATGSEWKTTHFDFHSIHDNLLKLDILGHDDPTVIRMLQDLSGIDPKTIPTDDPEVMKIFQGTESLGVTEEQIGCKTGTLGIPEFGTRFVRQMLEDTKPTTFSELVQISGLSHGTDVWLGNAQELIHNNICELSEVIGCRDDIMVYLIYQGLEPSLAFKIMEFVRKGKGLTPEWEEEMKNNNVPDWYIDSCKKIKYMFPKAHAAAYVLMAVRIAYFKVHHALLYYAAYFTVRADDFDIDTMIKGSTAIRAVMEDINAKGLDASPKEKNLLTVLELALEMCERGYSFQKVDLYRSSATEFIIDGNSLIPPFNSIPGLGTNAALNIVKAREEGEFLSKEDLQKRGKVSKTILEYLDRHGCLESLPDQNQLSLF

For the compound `CCc1cc(Nc2cc(=O)n(CCOC)c(=O)[nH]2)ccc1C` [ME-EMAU], the MIC in test [1] turned out to be 8.3 µg/mL (≈ 27.4 µM); in [3], 6.2 µg/mL (≈ 20.4 µM); in test [4], 6.2 µg/mL (≈ 20.4 µM); in [5] it was 12.4 µg/mL (≈ 40.9 µM); in [7], 8.3 µg/mL (≈ 27.4 µM); in test [8], 1 µg/mL (≈ 3.3 µM). Also, the results for the MIC in test [9] and in [10] were 10.3 µg/mL (≈ 34 µM) and greater than 35 µg/mL, respectively. For the same compound, the results for the Ki in test [2], in test [6] and in [11] were 160 nM, 820 nM and 190 nM, respectively.
With `CCc1cc(Nc2cc(=O)n(CCO)c(=O)[nH]2)ccc1C` [HE-EMAU], the minimal inhibitory concentration (MIC) stood at 8.7 µg/mL (≈ 30.1 µM) in [1]; 8.7 µg/mL (≈ 30.1 µM) in test [3]; 6.5 µg/mL (≈ 22.5 µM) in test [4]; 17.4 µg/mL (≈ 60.1 µM) in test [5]; 17.4 µg/mL (≈ 60.1 µM) in test [7]; 1.1 µg/mL (≈ 3.8 µM) in [8]. The MIC is 8.7 µg/mL (≈ 30.1 µM) in [9] and greater than 35 µg/mL in test [10]. The Ki was 170 nM in test [2], 980 nM in test [6] and 200 nM in test [11].
Consider `CCc1cc(Nc2cc(=O)n(CCCO)c(=O)[nH]2)ccc1C` [HP-EMAU], for which the MIC in test [1] turned out to be 4.1 µg/mL (≈ 13.5 µM); in test [3], 4.1 µg/mL (≈ 13.5 µM); in test [4], 4.1 µg/mL (≈ 13.5 µM); in [5] it was 8.3 µg/mL (≈ 27.4 µM); in test [7] it was 8.3 µg/mL (≈ 27.4 µM); in test [8], 1 µg/mL (≈ 3.3 µM). Moreover, the MIC is 4.1 µg/mL (≈ 13.5 µM) in test [9] and greater than 35 µg/mL in test [10]. The figures for the Ki in test [2], in test [6] and in [11] were 140 nM, 420 nM and 330 nM, respectively. Further, the animals protected in test [12] (5 mg/kg ip) is listed as 70%. In test [12] (10 mg/kg ip, 10 mice, 2.3×10^7 CFU S. aureus Smith ip, DMSO:peanut oil 1:9), the protection of mice result is on record as “protected all mice”.
In the case of `CCc1cc(Nc2cc(=O)n(CCCOC)c(=O)[nH]2)ccc1C` [MP-EMAU], the MIC in test [1] is 3.9 µg/mL (≈ 12.3 µM); in test [3] it was 1.9 µg/mL (≈ 5.99 µM); in test [4], 1.9 µg/mL (≈ 5.99 µM); in test [5] it was 3.9 µg/mL (≈ 12.3 µM); in test [13] it was 3.13 µg/mL (≈ 9.86 µM); in test [7], 3.9 µg/mL (≈ 12.3 µM). The figures for the MIC in test [8], in [9] and in test [10] were 0.5 µg/mL (≈ 1.58 µM), 3.9 µg/mL (≈ 12.3 µM) and greater than 35 µg/mL, respectively. Further, the inhibition constant Ki stood at 190 nM in [2], 820 nM in test [6] and 240 nM in test [11]. In addition, the results for the animals protected entry in test [12] (10 mg/kg ip) and in test [12] (lower dose (5 mg/kg) ip) were “roughly 50%” and “none”, respectively.
